Experimental data published in the kinase profiling compilation of Christmann-Franck et al. (2016).

Experiments:
KIT (human) = KIT (human) (UniProt P10721)
PDGFRB (human) = PDGFRB (human) (UniProt P09619)
CSNK1E (human) = CSNK1E (human) (UniProt P49674)
DDR1 (human) = DDR1 (human) (UniProt Q08345)
CSNK1G2 (human) = CSNK1G2 (human) (UniProt P78368)
MAPK9 (human) = MAPK9 (human) (UniProt P45984); test: radiometric filter-binding kinase assay
ERBB4 (human) = ERBB4 (human) (UniProt Q15303); test: radiometric filter-binding kinase assay
EPHB4 (human) = EPHB4 (human) (UniProt P54760); test: radiometric filter-binding kinase assay
MAP3K9 (human) = MAP3K9 (human) (UniProt P80192); test: radiometric filter-binding kinase assay
RIPK2 (human) = RIPK2 (human) (UniProt O43353); test: radiometric filter-binding kinase assay
MAPK8 (human) = MAPK8 (human) (UniProt P45983); test: radiometric filter-binding kinase assay
Chain of MAPK8 (human) (P45983 whole entry, looked up): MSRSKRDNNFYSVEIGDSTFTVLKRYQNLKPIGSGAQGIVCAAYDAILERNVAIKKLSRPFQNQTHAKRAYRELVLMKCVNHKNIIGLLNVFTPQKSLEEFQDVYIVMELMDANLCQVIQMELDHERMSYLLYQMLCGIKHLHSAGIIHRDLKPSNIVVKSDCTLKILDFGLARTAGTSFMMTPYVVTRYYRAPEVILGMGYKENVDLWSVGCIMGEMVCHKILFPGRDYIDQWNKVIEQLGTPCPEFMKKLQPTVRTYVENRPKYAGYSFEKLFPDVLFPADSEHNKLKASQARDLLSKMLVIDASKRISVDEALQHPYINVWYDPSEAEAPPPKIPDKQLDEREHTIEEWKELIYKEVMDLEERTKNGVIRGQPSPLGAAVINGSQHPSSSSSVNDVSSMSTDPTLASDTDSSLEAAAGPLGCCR

GSK3B (human) = GSK3B (human) (UniProt P49841); test: radiometric filter-binding kinase assay
Chain of GSK3B (human) (P49841 whole entry, looked up): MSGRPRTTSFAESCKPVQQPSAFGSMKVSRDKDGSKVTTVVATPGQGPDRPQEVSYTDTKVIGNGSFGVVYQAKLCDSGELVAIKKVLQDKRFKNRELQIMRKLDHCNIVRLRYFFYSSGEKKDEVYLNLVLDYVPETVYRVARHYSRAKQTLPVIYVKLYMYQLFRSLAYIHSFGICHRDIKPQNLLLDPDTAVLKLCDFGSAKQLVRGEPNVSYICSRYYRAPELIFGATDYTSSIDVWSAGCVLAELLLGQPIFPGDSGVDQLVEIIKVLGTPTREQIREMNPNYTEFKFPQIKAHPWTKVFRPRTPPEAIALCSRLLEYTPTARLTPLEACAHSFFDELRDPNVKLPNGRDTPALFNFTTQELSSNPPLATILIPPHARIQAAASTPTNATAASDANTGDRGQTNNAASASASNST

MAP3K7 (human) = MAP3K7 (human) (UniProt O43318); test: radiometric filter-binding kinase assay
Chain of MAP3K7 (human) (O43318 whole entry, looked up): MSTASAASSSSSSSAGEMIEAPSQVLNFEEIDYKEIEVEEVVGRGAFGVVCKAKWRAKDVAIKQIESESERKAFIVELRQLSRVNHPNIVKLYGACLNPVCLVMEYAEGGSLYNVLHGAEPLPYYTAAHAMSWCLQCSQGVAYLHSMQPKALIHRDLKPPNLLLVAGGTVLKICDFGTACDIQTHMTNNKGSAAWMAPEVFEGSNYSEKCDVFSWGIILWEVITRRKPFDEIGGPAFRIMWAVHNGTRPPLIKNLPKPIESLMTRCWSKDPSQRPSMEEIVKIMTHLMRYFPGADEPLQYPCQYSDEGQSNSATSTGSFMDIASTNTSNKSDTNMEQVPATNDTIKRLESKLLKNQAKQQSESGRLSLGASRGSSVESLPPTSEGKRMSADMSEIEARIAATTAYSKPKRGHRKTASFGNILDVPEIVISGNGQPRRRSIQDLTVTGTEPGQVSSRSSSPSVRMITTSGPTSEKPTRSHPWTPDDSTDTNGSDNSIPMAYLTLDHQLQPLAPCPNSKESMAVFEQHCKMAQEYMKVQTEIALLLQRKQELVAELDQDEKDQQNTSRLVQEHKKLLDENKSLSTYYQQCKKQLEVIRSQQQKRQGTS

FLT1 (human) = FLT1 (human) (UniProt P17948); test: radiometric filter-binding kinase assay
EPHB2 (human) = EPHB2 (human) (UniProt P29323); test: radiometric filter-binding kinase assay
MAPK10 (human) = MAPK10 (human) (UniProt P53779); test: radiometric filter-binding kinase assay
WEE2 (human) = WEE2 (human) (UniProt P0C1S8); test: KINOMEscan competition binding
CDKL1 (human) = CDKL1 (human) (UniProt Q00532); test: KINOMEscan competition binding
Chain of CDKL1 (human) (Q00532 whole entry, looked up): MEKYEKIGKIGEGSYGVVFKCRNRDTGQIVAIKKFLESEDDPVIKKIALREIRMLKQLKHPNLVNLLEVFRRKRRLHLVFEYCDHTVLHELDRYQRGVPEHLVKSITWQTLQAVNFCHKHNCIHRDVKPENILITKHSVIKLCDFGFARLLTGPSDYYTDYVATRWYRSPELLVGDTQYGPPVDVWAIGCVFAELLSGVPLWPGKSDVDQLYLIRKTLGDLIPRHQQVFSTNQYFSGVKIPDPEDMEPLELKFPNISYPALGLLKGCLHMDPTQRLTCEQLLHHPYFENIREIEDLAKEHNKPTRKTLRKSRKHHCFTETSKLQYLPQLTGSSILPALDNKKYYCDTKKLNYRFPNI

MAPK3 (human) = MAPK3 (human) (UniProt P27361); test: KINOMEscan competition binding
Chain of MAPK3 (human) (P27361 whole entry, looked up): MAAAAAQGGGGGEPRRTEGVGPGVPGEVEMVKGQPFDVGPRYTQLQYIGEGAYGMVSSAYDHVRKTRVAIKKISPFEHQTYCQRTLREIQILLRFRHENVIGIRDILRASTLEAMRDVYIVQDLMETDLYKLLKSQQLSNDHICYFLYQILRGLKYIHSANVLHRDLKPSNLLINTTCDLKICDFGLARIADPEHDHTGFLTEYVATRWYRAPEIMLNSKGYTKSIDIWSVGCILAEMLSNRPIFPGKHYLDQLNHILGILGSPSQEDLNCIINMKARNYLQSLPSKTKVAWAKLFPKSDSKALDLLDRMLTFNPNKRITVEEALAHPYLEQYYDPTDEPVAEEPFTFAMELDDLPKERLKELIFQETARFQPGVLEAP

ULK2 (human) = ULK2 (human) (UniProt Q8IYT8); test: KINOMEscan competition binding
Chain of ULK2 (human) (Q8IYT8 whole entry, looked up): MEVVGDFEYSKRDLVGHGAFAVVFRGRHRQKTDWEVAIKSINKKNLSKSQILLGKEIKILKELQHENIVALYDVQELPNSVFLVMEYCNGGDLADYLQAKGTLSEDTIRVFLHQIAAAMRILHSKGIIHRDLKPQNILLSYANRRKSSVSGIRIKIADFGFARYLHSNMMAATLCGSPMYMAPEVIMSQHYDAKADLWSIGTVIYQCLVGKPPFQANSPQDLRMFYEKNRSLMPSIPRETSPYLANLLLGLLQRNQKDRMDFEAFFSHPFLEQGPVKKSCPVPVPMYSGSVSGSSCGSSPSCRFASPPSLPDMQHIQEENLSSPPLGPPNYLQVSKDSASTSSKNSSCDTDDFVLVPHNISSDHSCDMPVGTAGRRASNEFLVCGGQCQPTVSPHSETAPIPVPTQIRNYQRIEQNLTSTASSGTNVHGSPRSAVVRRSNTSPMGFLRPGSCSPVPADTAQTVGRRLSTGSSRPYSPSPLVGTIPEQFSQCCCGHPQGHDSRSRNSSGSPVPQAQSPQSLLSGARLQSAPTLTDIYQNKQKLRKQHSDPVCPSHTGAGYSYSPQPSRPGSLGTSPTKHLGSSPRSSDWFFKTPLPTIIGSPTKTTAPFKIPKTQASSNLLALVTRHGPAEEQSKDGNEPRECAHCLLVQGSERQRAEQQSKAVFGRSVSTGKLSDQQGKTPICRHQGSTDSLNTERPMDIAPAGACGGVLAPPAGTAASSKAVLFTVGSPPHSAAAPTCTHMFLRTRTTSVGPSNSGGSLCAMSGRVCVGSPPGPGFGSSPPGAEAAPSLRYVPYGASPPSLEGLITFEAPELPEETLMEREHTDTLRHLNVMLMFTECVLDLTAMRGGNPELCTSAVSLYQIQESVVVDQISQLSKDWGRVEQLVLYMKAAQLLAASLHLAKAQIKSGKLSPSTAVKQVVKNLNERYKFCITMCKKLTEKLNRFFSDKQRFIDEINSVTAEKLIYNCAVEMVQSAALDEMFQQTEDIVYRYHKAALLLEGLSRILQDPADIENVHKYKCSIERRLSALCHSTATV

DCLK3 (human) = DCLK3 (human) (UniProt Q9C098); test: KINOMEscan competition binding
Chain of DCLK3 (human) (Q9C098 whole entry, looked up): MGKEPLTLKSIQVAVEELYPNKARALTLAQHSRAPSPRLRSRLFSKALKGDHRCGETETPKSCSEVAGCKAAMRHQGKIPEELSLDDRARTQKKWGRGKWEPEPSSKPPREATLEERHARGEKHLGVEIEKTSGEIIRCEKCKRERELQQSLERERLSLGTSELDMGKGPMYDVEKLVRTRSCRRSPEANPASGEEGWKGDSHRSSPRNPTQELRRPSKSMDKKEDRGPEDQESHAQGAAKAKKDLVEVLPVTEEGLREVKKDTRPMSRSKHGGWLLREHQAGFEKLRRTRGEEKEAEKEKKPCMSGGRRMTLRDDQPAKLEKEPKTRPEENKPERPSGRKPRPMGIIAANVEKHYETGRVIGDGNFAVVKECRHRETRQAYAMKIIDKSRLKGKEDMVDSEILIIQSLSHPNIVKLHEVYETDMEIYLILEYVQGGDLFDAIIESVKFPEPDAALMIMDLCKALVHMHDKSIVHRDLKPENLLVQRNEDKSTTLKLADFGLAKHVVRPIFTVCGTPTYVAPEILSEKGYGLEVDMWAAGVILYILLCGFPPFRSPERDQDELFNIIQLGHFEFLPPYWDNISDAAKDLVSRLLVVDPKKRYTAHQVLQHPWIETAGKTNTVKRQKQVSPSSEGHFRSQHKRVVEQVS

AKT1 (human) = AKT1 (human) (UniProt P31749)
AKT3 (human) = AKT3 (human) (UniProt Q9Y243)
SLK (human) = SLK (human) (UniProt Q9H2G2)
[1] = target: AKT2 (human), P31751 [S474D]; test: radiometric filter-binding kinase assay
CaMK1 (human) = CaMK1 (human) (UniProt Q14012); test: radiometric filter-binding kinase assay
PRKX (human) = PRKX (human) (UniProt P51817)
CSF1R (human) = CSF1R (human) (UniProt P07333)
HIPK4 (human) = HIPK4 (human) (UniProt Q8NE63)
MKNK2 (human) = MKNK2 (human) (UniProt Q9HBH9)
YES1 (human) = YES1 (human) (UniProt P07947); test: radiometric filter-binding kinase assay
IRAK1 (human) [2] = target: IRAK1 (human) (UniProt P51617)
HIPK1 (human) [3] = target: HIPK1 (human) (UniProt Q86Z02)
NUAK1 (human) = NUAK1 (human) (UniProt O60285); test: radiometric filter-binding kinase assay
IRAK1 (human) [4] = target: IRAK1 (human) (UniProt P51617); test: radiometric filter-binding kinase assay
CLK2 (human) = CLK2 (human) (UniProt P49760); test: radiometric filter-binding kinase assay
MAPK15 (human) = MAPK15 (human) (UniProt Q8TD08); test: radiometric filter-binding kinase assay
HIPK1 (human) [5] = target: HIPK1 (human) (UniProt Q86Z02); test: radiometric filter-binding kinase assay
JAK2 JH1 JH2 (human) = JAK2 JH1 JH2 (human) (UniProt O60674); test: radiometric filter-binding kinase assay
GCK (human) = GCK (human) (UniProt Q12851); test: radiometric filter-binding kinase assay
CSNK2A1 (human) = CSNK2A1 (human) (UniProt P68400); test: radiometric filter-binding kinase assay

Chain of KIT (human) (P10721 whole entry, looked up): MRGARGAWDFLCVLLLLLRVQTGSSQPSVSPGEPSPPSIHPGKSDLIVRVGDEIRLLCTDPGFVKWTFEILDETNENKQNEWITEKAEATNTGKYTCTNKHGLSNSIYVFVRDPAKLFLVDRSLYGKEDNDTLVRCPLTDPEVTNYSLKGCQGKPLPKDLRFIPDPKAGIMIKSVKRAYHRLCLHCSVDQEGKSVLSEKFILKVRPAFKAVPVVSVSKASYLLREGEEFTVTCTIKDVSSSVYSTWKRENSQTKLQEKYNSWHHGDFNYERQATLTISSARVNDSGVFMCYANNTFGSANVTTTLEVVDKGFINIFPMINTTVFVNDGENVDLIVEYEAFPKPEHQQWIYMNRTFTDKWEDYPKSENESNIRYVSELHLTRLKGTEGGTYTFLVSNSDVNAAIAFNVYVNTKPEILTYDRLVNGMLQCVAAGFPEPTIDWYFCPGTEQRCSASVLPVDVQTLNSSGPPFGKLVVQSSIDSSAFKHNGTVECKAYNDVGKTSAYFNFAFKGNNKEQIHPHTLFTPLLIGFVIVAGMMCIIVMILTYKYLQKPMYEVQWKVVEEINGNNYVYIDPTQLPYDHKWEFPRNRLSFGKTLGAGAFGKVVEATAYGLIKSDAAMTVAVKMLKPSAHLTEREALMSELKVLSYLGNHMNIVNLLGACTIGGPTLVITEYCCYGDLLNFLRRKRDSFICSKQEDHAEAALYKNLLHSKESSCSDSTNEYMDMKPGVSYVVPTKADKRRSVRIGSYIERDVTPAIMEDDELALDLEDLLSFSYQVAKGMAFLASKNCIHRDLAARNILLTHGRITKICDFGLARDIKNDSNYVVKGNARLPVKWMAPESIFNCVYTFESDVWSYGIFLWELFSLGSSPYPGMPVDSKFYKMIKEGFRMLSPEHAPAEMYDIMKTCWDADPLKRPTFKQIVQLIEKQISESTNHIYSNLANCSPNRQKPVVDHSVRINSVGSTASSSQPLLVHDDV

SMILES	IC50 (KIT (human)) [nM]	IC50 (PDGFRB (human)) [nM]	IC50 (MAPK9 (human)) [nM]	IC50 (MAP3K9 (human)) [nM]	IC50 (RIPK2 (human)) [nM]	IC50 (MAPK8 (human)) [nM]	IC50 (GSK3B (human)) [nM]	IC50 (MAP3K7 (human)) [nM]	IC50 (FLT1 (human)) [nM]	IC50 (MAPK10 (human)) [nM]	kinase still bound, per cent of control (WEE2 (human); compound 1.0 µM) [%]	kinase still bound, per cent of control (CDKL1 (human); compound 1.0 µM) [%]	kinase still bound, per cent of control (MAPK3 (human); compound 1.0 µM) [%]	kinase still bound, per cent of control (ULK2 (human); compound 1.0 µM) [%]	kinase still bound, per cent of control (DCLK3 (human); compound 1.0 µM) [%]	further results
CN(C)C/C=C/C(=O)Nc1cccc(C(=O)Nc2ccc(Nc3nccc(-c4c(-c5ccccc5)nn5ccccc45)n3)cc2)c1	1320	1030	23	45	42	39	32	351	18	8.4	100	100	100	100	86	IC50 (CSNK1E (human)): 82.9 nM; IC50 (DDR1 (human)): 56.1 nM; IC50 (CSNK1G2 (human)): 161 nM; IC50 (ERBB4 (human)): 28.9 nM; IC50 (EPHB4 (human)): 121 nM; IC50 (EPHB2 (human)): 138 nM
CN(C)C/C=C/C(=O)Nc1cccc(C(=O)Nc2ccc(Nc3nccc(/C(C#N)=C4\Nc5ccccc5S4)n3)cc2)c1	–	–	490	104	–	327	84	866	134	354	100	66	100	73	100	IC50 (AKT1 (human)): > 370 nM; IC50 (AKT3 (human)): > 370 nM; IC50 (SLK (human)): 884 nM; IC50 [1]: 970 nM; IC50 (CaMK1 (human)): 900 nM
Cc1cc(NC(=O)c2cccc(NC(=O)/C=C/CN(C)C)c2)ccc1Nc1nccc(-c2cccnc2)n1	> 10000	> 10000	–	–	–	–	–	7720	–	–	100	88	100	96	100	IC50 (PRKX (human)): 7500 nM; IC50 (CSF1R (human)): 287 nM; IC50 (HIPK4 (human)): 8970 nM; IC50 (MKNK2 (human)): 238 nM; IC50 (YES1 (human)): 1280 nM
CN(C)C/C=C/C(=O)Nc1cccc(C(=O)Nc2ccc(Nc3nccc(-c4cccnc4)n3)cc2)c1	2410	–	–	–	729	41	933	833	–	–	100	54	100	86	100	IC50 (IRAK1 (human) [2]): 14.1 nM; IC50 (HIPK1 (human) [3]): 5010 nM; IC50 (NUAK1 (human)): 144 nM; IC50 (IRAK1 (human) [4]): 175 nM; IC50 (CLK2 (human)): 299 nM; IC50 (MAPK15 (human)): 183 nM; IC50 (HIPK1 (human) [5]): 7610 nM; IC50 (JAK2 JH1 JH2 (human)): 2510 nM; IC50 (GCK (human)): 20500 nM; IC50 (CSNK2A1 (human)): 506 nM
Cc1ccc(NC(=O)c2ccc(NC(=O)/C=C/CN(C)C)cc2)cc1Nc1nccc(-c2cccnc2)n1	–	–	–	–	–	–	–	–	–	–	–	–	–	–	–	kinase still bound, per cent of control (WEE2 (human); compound 10.0 µM): 100%; kinase still bound, per cent of control (CDKL1 (human); compound 10.0 µM): 100%; kinase still bound, per cent of control (MAPK3 (human); compound 10.0 µM): 100%; kinase still bound, per cent of control (ULK2 (human); compound 10.0 µM): 30%; kinase still bound, per cent of control (DCLK3 (human); compound 10.0 µM): 100%
